Experimental data published in ChEMBL document CHEMBL1141122, “Receptor flexibility in de novo ligand design and docking” (J Med Chem, 2005).
pIC50, pKi: −log10 of the molar value.

target: T1, Interstitial collagenase (Homo sapiens, UniProt P03956); assay: Inhibitory concentration against (MMP-1) matrix metalloprotease-1
T1 sequence (P03956 whole entry): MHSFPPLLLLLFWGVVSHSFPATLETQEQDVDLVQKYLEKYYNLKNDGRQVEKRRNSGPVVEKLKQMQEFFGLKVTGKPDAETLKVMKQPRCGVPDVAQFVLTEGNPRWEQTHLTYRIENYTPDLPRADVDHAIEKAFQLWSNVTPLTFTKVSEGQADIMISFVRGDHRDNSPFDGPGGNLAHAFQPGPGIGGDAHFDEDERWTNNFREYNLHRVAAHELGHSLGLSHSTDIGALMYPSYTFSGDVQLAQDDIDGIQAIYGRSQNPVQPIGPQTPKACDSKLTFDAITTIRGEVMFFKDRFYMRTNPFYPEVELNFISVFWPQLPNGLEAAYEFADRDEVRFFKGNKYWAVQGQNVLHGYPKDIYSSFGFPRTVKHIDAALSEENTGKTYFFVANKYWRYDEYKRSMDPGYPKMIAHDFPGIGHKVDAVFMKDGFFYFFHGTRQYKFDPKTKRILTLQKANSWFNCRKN

pIC50	SMILES
7.66	O=C(CCC(=O)c1ccc(Oc2ccccc2)cc1)NO
8.00	Cc1cc(F)ccc1COc1ccc(S(=O)(=O)NCC(=O)NO)cc1
8.00	Cc1cc(F)ccc1COc1ccc(C(=O)NCC(=O)NO)cc1
8.00	Cc1cc(F)ccc1COc1ccc(S(=O)(=O)CCC(=O)NO)cc1
7.66	O=C(CNS(=O)(=O)c1ccc(Oc2ccccc2)cc1)NO
6.92	CC#COc1ccc(S(=O)(=O)NCC(=O)NO)cc1
8.52	O=C1CC=C2C=CC=C(C(=O)CCC(=O)NO)N2C1
6.92	CC#COc1ccc(C(=O)NCC(=O)NO)cc1
8.89	O=C1CC=C2C=CC=C(C(=O)NCC(=O)NO)N2C1
7.66	O=C(CCS(=O)(=O)c1ccc(Oc2ccccc2)cc1)NO
6.04	CCCCOc1ccc(C(=O)NCC(=O)NO)cc1
6.04	CCCCOc1ccc(S(=O)(=O)CCC(=O)NO)cc1
6.04	CCCCOc1ccc(S(=O)(=O)NCC(=O)NO)cc1
8.89	O=C1CC=C2C=CC=C(S(=O)(=O)NCC(=O)NO)N2C1
7.66	O=C(CNC(=O)c1ccc(Oc2ccccc2)cc1)NO
8.00	Cc1cc(F)ccc1COc1ccc(C(=O)CCC(=O)NO)cc1
6.04	CCCCOc1ccc(C(=O)CCC(=O)NO)cc1
8.89	O=C1CC=C2C=CC=C(S(=O)(=O)CCC(=O)NO)N2C1
6.92	CC#COc1ccc(S(=O)(=O)CCC(=O)NO)cc1
6.92	CC#COc1ccc(C(=O)CCC(=O)NO)cc1

target: T1, Interstitial collagenase; assay: Binding affinity towards (MMP-1) matrix metalloprotease-1

pKi	SMILES
8.09	O=C(CCS(=O)(=O)c1ccc(Oc2ccncc2)cc1)NO
6.65	O=C(CNC(=O)N1CCC(Oc2ccc(-n3ccnc3)cc2)CC1)NO
7.48	COc1ccc(S(=O)(=O)CCC(=O)NO)cc1
7.15	O=C(CNS(=O)(=O)c1ccc(Oc2ccc(Cl)cc2)cc1)NO
6.65	O=C(CCC(=O)N1CCC(Oc2ccc(-n3ccnc3)cc2)CC1)NO
8.52	O=C(CCS(=O)(=O)c1ccc(C(F)(F)F)cc1)NO
8.09	O=C(CNS(=O)(=O)c1ccc(Oc2ccncc2)cc1)NO
7.15	O=C(CCS(=O)(=O)c1ccc(Oc2ccc(Cl)cc2)cc1)NO
8.09	O=C(CCC(=O)c1ccc(Oc2ccncc2)cc1)NO
8.52	O=C(CNS(=O)(=O)c1ccc(C(F)(F)F)cc1)NO
7.15	O=C(CCC(=O)c1ccc(Oc2ccc(Cl)cc2)cc1)NO
7.48	COc1ccc(C(=O)CCC(=O)NO)cc1
7.15	O=C(CNC(=O)c1ccc(Oc2ccc(Cl)cc2)cc1)NO
8.52	O=C(CCC(=O)c1ccc(C(F)(F)F)cc1)NO
7.48	COc1ccc(C(=O)NCC(=O)NO)cc1
6.65	O=C(CNS(=O)(=O)N1CCC(Oc2ccc(-n3ccnc3)cc2)CC1)NO
8.09	O=C(CNC(=O)c1ccc(Oc2ccncc2)cc1)NO
6.65	O=C(CCS(=O)(=O)N1CCC(Oc2ccc(-n3ccnc3)cc2)CC1)NO
8.52	O=C(CNC(=O)c1ccc(C(F)(F)F)cc1)NO
